# Experimental data reported in patent publication US20060041013A1, “Alanosine formulations and methods of use” (priority 2004, published 2006).
# Like-named read-outs stand apart in the source and are kept apart here.
# Experiments:
# BX-PC3 [1] = test: Drug combinations with L-alanosine, MTT assay; type: cell-based; conditions: combination with L-alanosine, three days
# Method: (§1) In each experiment, tumor cells from lung, pancreatic, or mesothelial tumor cell lines were plated in 96-well plates at 5,000 cells/well in 100 μL media. The media for all assays except the Alimta® studies was RPMI-1640 and 10% horse serum. For the Alimta® studies, the media used was RPMI 1640 with dialyzed fetal bovine serum. All media contained 100 Units/mL penicillin and 100 μg/mL streptomycin. The cells were allowed to adhere for 18 hours at 37° C./5.0% CO2. […] After drug addition, cells were incubated three days at 37° C., 5.0% CO2. Cell viability was assayed using a standard MTT assay, as follows: 10 μl of 12 mM 3-[4,5-dimethylthiazol-2-yl]-2,5-diphenyltetrazolium bromide (MTT) (Sigma) were added to each well. The cells were incubated at 37° C., 5% CO2 for 4 to 6 hours. 100 μl of 20% SDS, 0.015 M HCl were added to each well and the cells were incubated overnight. Cytotoxicity was measured by reading absorbance at 595 nm.
# (§2) Data analysis was performed using GraphPad Prism version 3.0 (GraphPad Software, San Diego, Calif. USA).
# NCI-H2452 [2] = test: Drug combinations with L-alanosine, MTT assay; type: cell-based; conditions: combination with L-alanosine, mesothelioma, three days
# Method: as §1, §2
# PanC1 = test: Drug combinations with L-alanosine, MTT assay; type: cell-based; conditions: combination with L-alanosine, pancreatic, three days
# Method: as §1, §2
# A549 [3] = test: Docetaxel, 5-FU, SDX-102 alone or combined, MTT/MTS cytotoxicity (Example 4); type: cell-based; conditions: Homo sapiens; A549, NSCLC, single agent, MTT 72 hours
# NCI-H292 [4] = test: as above; type: cell-based; conditions: Homo sapiens; NCI-H292, NSCLC, single agent, MTT 72 hours
# NCI-H322M = test: as above; type: cell-based; conditions: Homo sapiens, NSCLC, single agent, MTT 72 hours
# PANC-1 = test: as above; type: cell-based; conditions: Homo sapiens; PANC-1, Pancreatic, single agent, MTT 72 hours
# BX-PC3 [5] = test: as above; type: cell-based; conditions: Homo sapiens, BXPC-3; BX-PC3, Pancreatic, single agent, MTT 72 hours
# NCI-H2452 [6] = test: as above; type: cell-based; conditions: Homo sapiens; NCI-H2452, Mesothelioma, single agent, MTT 72 hours
# A549 [7] = test: Drug combinations with L-alanosine, MTT assay; type: cell-based; conditions: combination with L-alanosine, NSCLC, three days
# Method: as §1, §2
# NCI-H2322M = test: Drug combinations with L-alanosine, MTT assay; type: cell-based; conditions: combination with L-alanosine, ratio drug:alanosine 1:1000; NSCLC; three days
# Method: as §1, §2
# NCI-H292 [8] = test: Drug combinations with L-alanosine, MTT assay; type: cell-based; conditions: combination with L-alanosine, ratio drug:alanosine 1:1000; NSCLC; three days
# Method: as §1, §2
# H-Meso-1 = test: Mesothelioma xenograft model (H-Meso-1) in SCID mice; type: in vivo; conditions: thirty-one days following treatment; docetaxel 10 mg/kg intraperitoneally daily Mon-Fri, SDX-102 50 mg/kg osmotic pump; start 100 mm^3; control 1272
# A549 NSCLC xenografts = test: MTAP-negative A549 NSCLC xenografts in SCID mice; type: in vivo
# A-427 [9] = test: Intracellular ATP levels (Cell-Titer Glow); type: cell-based
# Method: (§3) MTAP status was determined using immunoblot analyses and correlated with the ability of an MTA analog to rescue ATP levels in cell lines treated with SDX-102. ATP levels were measured using Cell-Titer Glow™ (Promega) after a 3 day treatment with titrated concentrations of either SDX-102 or pemetrexed.
# (§4) ATP values measured using Cell-Titer Glow™ (Promega) after 3 days exposure to the MTA analog. Solid lines in FIG. 8 represent the effect of titrations of SDX-102 from 0.05 μM-20 μM (FIG. 8A) or pemetrexed from 0.01 μM-5 μM (FIG. 8B) on cellular ATP levels. The dotted lines represent the effect of a single concentration of SDX-102 (10 μM) or pemetrexed (2.5 μM) with a titration of an MTA analog from 0.1 μM-50 μM.
# HS-766T [10] = test: Intracellular ATP levels (Cell-Titer Glow); type: cell-based
# Method: as §3, §4
# NCI-H226 [11] = test: Intracellular ATP levels (Cell-Titer Glow); type: cell-based
# Method: as §3, §4
# A-594 = test: Intracellular ATP levels (Cell-Titer Glow); type: cell-based; conditions: 72 h; A-594, NSCLC, MTAP Negative; 3 day treatment
# Method: as §3
# BxPC3 [12] = test: Intracellular ATP levels (Cell-Titer Glow); type: cell-based; conditions: Homo sapiens, BXPC-3, 72 h; BxPC3, Pancreatic, MTAP Negative; 3 day treatment
# Method: as §3
# NCI-H2452 [13] = test: Intracellular ATP levels (Cell-Titer Glow); type: cell-based; conditions: Homo sapiens
# Method: as §3
# BxPC3 [14] = test: Cell viability MTT assay (Example 3); type: cell-based; conditions: Homo sapiens, BXPC-3, 72 h; BxPC3, Pancreatic, MTAP Negative; 3 days
# HS-766T [15] = test: Cell viability MTT assay (Example 3); type: cell-based
# [16] = Cell viability MTT assay (Example 3); type: cell-based; conditions: 72 h; A-594, NSCLC, MTAP Negative; 3 days
# A-427 [17] = test: Cell viability MTT assay (Example 3); type: cell-based; conditions: Homo sapiens, 72 h; A-427, NSCLC, MTAP Positive; 3 days
# NCI-H2452 [18] = test: Cell viability MTT assay (Example 3); type: cell-based; conditions: Homo sapiens, 72 h; NCI-H2452, Mesothelioma, MTAP Negative; 3 days
# NCI-H226 [19] = test: Cell viability MTT assay (Example 3); type: cell-based; conditions: Homo sapiens, 72 h; NCI-H226, Mesothelioma, MTAP Positive; 3 days
# NCI-H2452 [20] = test system: NCI-H2452
# [21] = ratio drug:alanosine 5:1, pancreatic
# [22] = ratio drug:alanosine 1:4, pancreas
# [23] = ratio drug:alanosine 1:100, pancreas
smiles,measurement,setting,value
"O=c1[nH]cc(F)c(=O)[nH]1 [5-FU, 5-fluorouracil]",EC75 CI value,BX-PC3 [1]; [21],0.8
same,EC75 Effect,BX-PC3 [1]; [21],moderate
same,EC90 Effect,BX-PC3 [1]; [21],moderate
same,EC75 CI value,NCI-H2452 [2]; ratio drug:alanosine 1:1,0.5
same,EC75 Effect,NCI-H2452 [2]; ratio drug:alanosine 1:1,synergism
same,EC90 Effect,NCI-H2452 [2]; ratio drug:alanosine 1:1,synergism
same,EC75 CI value,PanC1; ratio drug:alanosine 1:1,0.6
same,EC75 Effect,PanC1; ratio drug:alanosine 1:1,synergism
same,EC90 Effect,PanC1; ratio drug:alanosine 1:1,synergism
same,IC50,A549 [3],1000 ± 600 nM
same,IC50,NCI-H292 [4],3000 ± 2000 nM
same,IC50,NCI-H322M,6000 ± 5000 nM
same,IC50,PANC-1,14000 ± 4000 nM
same,IC50,BX-PC3 [5],3000 ± 2000 nM
same,IC50,NCI-H2452 [6],5000 ± 2000 nM
"COc1cc2ncnc(Nc3ccc(F)c(Cl)c3)c2cc1OCCCN1CCOCC1 [Iressa ®, gefitinib]",EC75 CI value,BX-PC3 [1]; [22],0.29
same,EC75 Effect,BX-PC3 [1]; [22],strong
same,EC90 Effect,BX-PC3 [1]; [22],strong
CC(=O)O[C@@]12CO[C@@H]1C[C@H](O)[C@@]1(C)C(=O)[C@H](O)C3=C(C)[C@@H](OC(=O)[C@H](O)[C@@H](NC(=O)OC(C)(C)C)c4ccccc4)C[C@@](O)([C@@H](OC(=O)c4ccccc4)[C@H]21)C3(C)C [docetaxel],EC75 CI value,A549 [7]; ratio drug:alanosine 1:100,0.8
same,EC75 Effect,A549 [7]; ratio drug:alanosine 1:100,moderate
same,EC90 Effect,A549 [7]; ratio drug:alanosine 1:100,moderate
same,EC75 CI value,NCI-H2322M,0.9
same,EC90 Effect,NCI-H2322M,synergism
same,EC75 CI value,NCI-H2452 [2]; ratio drug:alanosine 1:1000,0.8
same,EC75 Effect,NCI-H2452 [2]; ratio drug:alanosine 1:1000,moderate
same,EC90 Effect,NCI-H2452 [2]; ratio drug:alanosine 1:1000,synergism
same,EC75 CI value,NCI-H292 [8],1.1
same,EC75 Effect,NCI-H292 [8],additive
same,EC90 Effect,NCI-H292 [8],additive
same,EC75 CI value,PanC1; ratio drug:alanosine 1:1000,0.6
same,EC75 Effect,PanC1; ratio drug:alanosine 1:1000,synergism
same,EC90 Effect,PanC1; ratio drug:alanosine 1:1000,synergism
same,IC50,A549 [3],5000 ± 4000 nM
same,IC50,NCI-H292 [4],200 ± 50 nM
same,IC50,NCI-H322M,6000 ± 2000 nM
same,IC50,PANC-1,30000 ± 6000 nM
same,IC50,BX-PC3 [5],1200 ± 800 nM
same,IC50,NCI-H2452 [6],3000 ± 2000 nM
same,mean tumor volume,H-Meso-1,655 mm^3
Nc1ccn([C@@H]2O[C@H](CO)[C@@H](O)C2(F)F)c(=O)n1 [gemcitabine],EC75 CI value,NCI-H2452 [2]; ratio drug:alanosine 1:100,0.6
same,EC75 Effect,NCI-H2452 [2]; ratio drug:alanosine 1:100,synergism
same,EC90 Effect,NCI-H2452 [2]; ratio drug:alanosine 1:100,synergism
CC(=O)O[C@H]1C(=O)[C@@]2(C)[C@H]([C@H](OC(=O)c3ccccc3)[C@]3(O)C[C@H](OC(=O)[C@H](O)[C@@H](NC(=O)c4ccccc4)c4ccccc4)C(C)=C1C3(C)C)[C@]1(OC(C)=O)CO[C@@H]1C[C@@H]2O [paclitaxel],tumor growth inhibition,"A549 NSCLC xenografts; 60 days monitoring, doses as administered",inhibited tumor growth
same,time for the tumors to increase 10-fold in size,"A549 NSCLC xenografts; L-alanosine 40 then 20 mg/kg/day, Taxol 16 mg/kg/day i.p., two cycles (day 0, day 41), control 32.2",43.2 days
same,percent mean change in tumor volume,A549 NSCLC xenografts; day 46,1449±236%
Nc1nc2[nH]cc(CCc3ccc(C(=O)N[C@@H](CCC(=O)O)C(=O)O)cc3)c2c(=O)[nH]1 [pemetrexed],EC75 CI value,A549 [7]; ratio drug:alanosine 1:10,0.9
same,EC75 Effect,A549 [7]; ratio drug:alanosine 1:10,slight
same,EC90 Effect,A549 [7]; ratio drug:alanosine 1:10,Slight
same,EC75 CI value,NCI-H2452 [2]; ratio drug:alanosine 1:1,0.3
same,EC75 Effect,NCI-H2452 [2]; ratio drug:alanosine 1:1,strong
same,EC90 Effect,NCI-H2452 [2]; ratio drug:alanosine 1:1,strong
same,"ATP levels restored by addition of an MTAP substrate, of level in control cells",A-427 [9]; A-427 (MTAP-positive) treated with pemetrexed,more than 85%
same,IC50,"A-427 [9]; Homo sapiens, 72 h, A-427, NSCLC, MTAP Positive, 3 day treatment",5000 nM
same,"ATP levels restored by addition of an MTAP substrate, of level in control cells",HS-766T [10]; HS-766T (MTAP-positive) treated with pemetrexed,more than 85%
same,IC50,"HS-766T [10]; Hs766T, 72 h, HS-766T, Pancreatic, MTAP Positive, 3 day treatment",800 nM
same,IC50,"NCI-H226 [11]; Homo sapiens, 72 h, NCI-H226, Mesothelioma, MTAP Positive, 3 day treatment",1000 nM
same,"ATP levels restored by addition of an MTAP substrate, of level in control cells",NCI-H226 [11]; NCI-H226 (MTAP-positive) treated with pemetrexed,more than 85%
same,IC50,A-594,> 20000 nM
same,IC50,BxPC3 [12],5000 nM
same,IC50,"NCI-H2452 [13]; 72 h, NCI-H2452, Mesothelioma, MTAP Negative, 3 day treatment, read-out: ATP IC50",100 nM
same,IC50,"NCI-H2452 [13]; NCI-H2452, 72 hours incubation, read-out: concentration causing 50% reduction of intracellular ATP",80 nM
same,IC50,BxPC3 [14],50 nM
same,IC50,"HS-766T [15]; Hs766T, 72 h, Pancreatic, MTAP Positive, 3 days",> 20000 nM
same,rescue by MTAP substrate from loss of viability,HS-766T [15]; MTT assay,fully rescue
same,IC50,[16],500 nM
same,IC50,A-427 [17],3000 nM
same,IC50,NCI-H2452 [18],50 nM
same,IC50,NCI-H226 [19],1000 nM
same,IC75,"NCI-H2452 [20]; NCI-H2452, incubation with 200 nM L-alanosine",15 nM
same,IC75,"NCI-H2452 [20]; NCI-H2452, pemetrexed alone",200 nM
CCC1=C[C@@H]2CN(C1)Cc1c([nH]c3ccccc13)[C@@](C(=O)OC)(c1cc3c(cc1OC)N(C)[C@H]1[C@@](O)(C(=O)OC)[C@H](OC(C)=O)[C@]4(CC)C=CCN5CC[C@]31[C@@H]54)C2 [vinorelbine],EC75 CI value,BX-PC3 [1]; [23],0.6
same,EC75 Effect,BX-PC3 [1]; [23],synergism
same,EC90 Effect,BX-PC3 [1]; [23],synergism
